PubChem BioAssay (NCI)
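Assay format: 96-well plates, 48-hour exposure. Abbreviation: GI50, concentration required for 50% inhibition of growth. At the TGI there is no net growth.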

What was measured:
Experiment in all cases: growth of human tumour cells (NCI), 48 h
CAKI-1 renal = test system: CAKI-1 renal
SNB-19 CNS = test system: SNB-19 CNS
OVCAR-3 ovarian = test system: OVCAR-3 ovarian
SNB-75 CNS = test system: SNB-75 CNS
DU-145 prostate = test system: DU-145 prostate
NCI/ADR-RES ovarian = test system: NCI/ADR-RES ovarian
NCI-H23 lung = test system: NCI-H23 lung
SF-295 CNS = test system: SF-295 CNS
LOX IMVI melanoma = test system: LOX IMVI melanoma
RXF 393 renal = test system: RXF 393 renal
TK-10 renal = test system: TK-10 renal
ACHN renal = test system: ACHN renal
U251 CNS = test system: U251 CNS
HOP-62 NSCLC = test system: HOP-62 NSCLC
HCT-116 colon = test system: HCT-116 colon
K-562 leukemia = test system: K-562 leukemia
UACC-62 melanoma = test system: UACC-62 melanoma
KM12 colon = test system: KM12 colon
OVCAR-5 ovarian = test system: OVCAR-5 ovarian
MCF7 breast = test system: MCF7 breast
SK-OV-3 ovarian = test system: SK-OV-3 ovarian
T-47D breast = test system: T-47D breast
MDA-MB-435 = test system: MDA-MB-435
OVCAR-8 ovarian = test system: OVCAR-8 ovarian
SK-MEL-5 melanoma = test system: SK-MEL-5 melanoma
SF-268 CNS = test system: SF-268 CNS
RPMI-8226 leukemia = test system: RPMI-8226 leukemia
COLO 205 colon = test system: COLO 205 colon
SK-MEL-2 melanoma = test system: SK-MEL-2 melanoma
A498 renal = test system: A498 renal
SN12C renal = test system: SN12C renal
UO-31 renal = test system: UO-31 renal
NCI-H460 lung = test system: NCI-H460 lung
NCI-H522 lung = test system: NCI-H522 lung
NCI-H226 lung = test system: NCI-H226 lung
HS 578T breast = test system: HS 578T breast
UACC-257 melanoma = test system: UACC-257 melanoma
SW-620 colon = test system: SW-620 colon
MALME-3M melanoma = test system: MALME-3M melanoma
M14 melanoma = test system: M14 melanoma
CCRF-CEM leukemia = test system: CCRF-CEM leukemia
HCT-15 colon = test system: HCT-15 colon
PC-3 prostate = test system: PC-3 prostate
A549 NSCLC = test system: A549 NSCLC
BT-549 breast = test system: BT-549 breast
HCC-2998 colon = test system: HCC-2998 colon
SF-539 CNS = test system: SF-539 CNS
HT29 colon = test system: HT29 colon
MDA-MB-231 breast = test system: MDA-MB-231 breast
OVCAR-4 ovarian = test system: OVCAR-4 ovarian
MOLT-4 leukemia = test system: MOLT-4 leukemia
786-0 renal = test system: 786-0 renal
IGROV1 ovarian = test system: IGROV1 ovarian
EKVX NSCLC = test system: EKVX NSCLC
SK-MEL-28 melanoma = test system: SK-MEL-28 melanoma

Cn1c2ccccc2c2c(=O)n(CCCC(=O)OC(=NC3CCCCC3)NC3CCCCC3)c3c(-c4ccccc4)nnn3c21
GI50 (CAKI-1 renal): > 100 µM
TGI (CAKI-1 renal): > 100 µM
GI50 (SNB-19 CNS): > 100 µM
TGI (SNB-19 CNS): > 100 µM
GI50 (OVCAR-3 ovarian): > 100 µM
TGI (OVCAR-3 ovarian): > 100 µM
GI50 (SNB-75 CNS): 44.6 µM
TGI (SNB-75 CNS): > 100 µM
GI50 (DU-145 prostate): > 100 µM
TGI (DU-145 prostate): > 100 µM
GI50 (NCI/ADR-RES ovarian): 94.9 µM
TGI (NCI/ADR-RES ovarian): > 100 µM
GI50 (NCI-H23 lung): > 100 µM
TGI (NCI-H23 lung): > 100 µM
GI50 (SF-295 CNS): 79 µM
TGI (SF-295 CNS): > 100 µM
GI50 (LOX IMVI melanoma): > 100 µM
TGI (LOX IMVI melanoma): > 100 µM
GI50 (RXF 393 renal): 62.8 µM
TGI (RXF 393 renal): > 100 µM
GI50 (TK-10 renal): > 100 µM
TGI (TK-10 renal): > 100 µM
GI50 (ACHN renal): > 100 µM
TGI (ACHN renal): > 100 µM
GI50 (U251 CNS): > 100 µM
TGI (U251 CNS): > 100 µM
GI50 (HOP-62 NSCLC): > 100 µM
TGI (HOP-62 NSCLC): > 100 µM
GI50 (HCT-116 colon): 91.8 µM
TGI (HCT-116 colon): > 100 µM
GI50 (K-562 leukemia): > 100 µM
TGI (K-562 leukemia): > 100 µM
GI50 (UACC-62 melanoma): > 100 µM
TGI (UACC-62 melanoma): > 100 µM
GI50 (KM12 colon): > 100 µM
TGI (KM12 colon): > 100 µM
GI50 (OVCAR-5 ovarian): > 100 µM
TGI (OVCAR-5 ovarian): > 100 µM
GI50 (MCF7 breast): 64.1 µM
TGI (MCF7 breast): > 100 µM
GI50 (SK-OV-3 ovarian): > 100 µM
TGI (SK-OV-3 ovarian): > 100 µM
GI50 (T-47D breast): 55.8 µM
TGI (T-47D breast): > 100 µM
GI50 (MDA-MB-435): > 100 µM
TGI (MDA-MB-435): > 100 µM
GI50 (OVCAR-8 ovarian): > 100 µM
TGI (OVCAR-8 ovarian): > 100 µM
GI50 (SK-MEL-5 melanoma): > 100 µM
TGI (SK-MEL-5 melanoma): > 100 µM
GI50 (SF-268 CNS): 98.2 µM
TGI (SF-268 CNS): > 100 µM
GI50 (RPMI-8226 leukemia): > 100 µM
TGI (RPMI-8226 leukemia): > 100 µM
GI50 (COLO 205 colon): > 100 µM
TGI (COLO 205 colon): > 100 µM
GI50 (SK-MEL-2 melanoma): > 100 µM
TGI (SK-MEL-2 melanoma): > 100 µM
GI50 (A498 renal): 65.8 µM
TGI (A498 renal): > 100 µM
GI50 (SN12C renal): > 100 µM
TGI (SN12C renal): > 100 µM
GI50 (UO-31 renal): > 100 µM
TGI (UO-31 renal): > 100 µM
GI50 (NCI-H460 lung): > 100 µM
TGI (NCI-H460 lung): > 100 µM
GI50 (NCI-H522 lung): 69.5 µM
TGI (NCI-H522 lung): > 100 µM
GI50 (NCI-H226 lung): > 100 µM
TGI (NCI-H226 lung): > 100 µM
GI50 (HS 578T breast): > 100 µM
TGI (HS 578T breast): > 100 µM
GI50 (UACC-257 melanoma): > 100 µM
TGI (UACC-257 melanoma): > 100 µM
GI50 (SW-620 colon): > 100 µM
TGI (SW-620 colon): > 100 µM
GI50 (MALME-3M melanoma): > 100 µM
TGI (MALME-3M melanoma): > 100 µM
GI50 (M14 melanoma): > 100 µM
TGI (M14 melanoma): > 100 µM
GI50 (CCRF-CEM leukemia): > 100 µM
TGI (CCRF-CEM leukemia): > 100 µM
GI50 (HCT-15 colon): > 100 µM
TGI (HCT-15 colon): > 100 µM
GI50 (PC-3 prostate): > 100 µM
TGI (PC-3 prostate): > 100 µM
GI50 (A549 NSCLC): > 100 µM
TGI (A549 NSCLC): > 100 µM
GI50 (BT-549 breast): 72 µM
TGI (BT-549 breast): > 100 µM
GI50 (HCC-2998 colon): > 100 µM
TGI (HCC-2998 colon): > 100 µM
GI50 (SF-539 CNS): 38.4 µM
TGI (SF-539 CNS): > 100 µM
GI50 (HT29 colon): > 100 µM
TGI (HT29 colon): > 100 µM
GI50 (MDA-MB-231 breast): 71.7 µM
TGI (MDA-MB-231 breast): > 100 µM
GI50 (OVCAR-4 ovarian): 38 µM
TGI (OVCAR-4 ovarian): > 100 µM
GI50 (MOLT-4 leukemia): > 100 µM
TGI (MOLT-4 leukemia): > 100 µM
GI50 (786-0 renal): > 100 µM
TGI (786-0 renal): > 100 µM
GI50 (IGROV1 ovarian): 15.4 µM
TGI (IGROV1 ovarian): 94.4 µM
GI50 (EKVX NSCLC): > 100 µM
TGI (EKVX NSCLC): > 100 µM
GI50 (SK-MEL-28 melanoma): > 100 µM
TGI (SK-MEL-28 melanoma): > 100 µM
